Read-outs that look alike come from different tables or passages of the source.
Legend:
[1] = Caco-2 apical-to-basolateral apparent permeability; type: in vitro ADME; conditions: human
[2] = Unbound intrinsic metabolic clearance; type: in vitro ADME; conditions: human
CYP1A2 = assay: Unbound intrinsic metabolic clearance assigned to CYP1A2; type: in vitro ADME; conditions: human, human liver microsomes and recombinant enzymes
CYP2C8 = assay: Unbound intrinsic metabolic clearance assigned to CYP2C8; type: in vitro ADME; conditions: human, human liver microsomes and recombinant enzymes
CYP3A4 [3] = biological target: T1, CYP3A4 (Homo sapiens, UniProt P08684); type: in vitro ADME
UGT1A4 = assay: Unbound intrinsic metabolic clearance assigned to UGT1A4; type: in vitro ADME; conditions: human, human liver microsomes and recombinant enzymes
FMO3 = assay: Unbound intrinsic metabolic clearance assigned to FMO3; type: in vitro ADME; conditions: human, human liver microsomes and recombinant enzymes
[4] = olanzapine PBPK input, cited from earlier work
CYP3A4 [5] = biological target: T1, CYP3A4; conditions: cited from earlier work
[6] = cited from earlier work
[7] = cited from earlier work; remark: listed apart in the source
[8] = Physicochemical properties used as PBPK inputs; conditions: samidorphan, unpublished data provided by Alkermes
[9] = Blood-to-plasma partition ratio and fraction unbound in plasma; type: in vitro ADME
non-CYP3A4 enzymes = assay: Unbound intrinsic metabolic clearance; type: in vitro ADME; conditions: human
[10] = Renal clearance / renal excretion of unchanged drug; conditions: human, in vivo
CYP2D6 = CYP2D6 (Homo sapiens, UniProt P10635); assay: CYP2D6 competitive inhibition; type: biochemical
[11] = Fraction unbound in microsomal incubation; type: in vitro ADME; conditions: 0.5 mg/mL microsomal incubation; unpublished data provided by Alkermes
human μ‐opioid receptor = conditions: in vitro; cited from earlier work
human κ‐opioid receptor = conditions: in vitro; cited from earlier work
human δ‐opioid receptor = conditions: in vitro; cited from earlier work
μ‐opioid receptors = conditions: in vitro; cited from earlier work
κ‐opioid receptors = conditions: in vitro; cited from earlier work
δ‐opioid receptors = conditions: in vitro; cited from earlier work
opioid receptor = conditions: cited from earlier work
[12] = ± itraconazole 200 mg q.d., observed, sublingual BUP/SAM 2/2

T1 sequence (P08684 whole entry): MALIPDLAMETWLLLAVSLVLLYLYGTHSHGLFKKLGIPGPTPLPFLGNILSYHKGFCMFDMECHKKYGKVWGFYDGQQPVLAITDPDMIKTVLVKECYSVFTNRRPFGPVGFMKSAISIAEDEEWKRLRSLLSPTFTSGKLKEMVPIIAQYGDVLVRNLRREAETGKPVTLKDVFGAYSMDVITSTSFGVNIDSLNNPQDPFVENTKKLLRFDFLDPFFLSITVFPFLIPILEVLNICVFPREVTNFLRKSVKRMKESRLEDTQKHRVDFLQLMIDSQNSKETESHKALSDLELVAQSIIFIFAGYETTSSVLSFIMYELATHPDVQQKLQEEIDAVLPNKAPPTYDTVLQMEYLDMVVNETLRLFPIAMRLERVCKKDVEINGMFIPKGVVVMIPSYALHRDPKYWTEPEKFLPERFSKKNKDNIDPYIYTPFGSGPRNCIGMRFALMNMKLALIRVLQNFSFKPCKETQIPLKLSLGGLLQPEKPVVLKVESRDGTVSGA
CYP2D6, sequence (P10635 whole entry): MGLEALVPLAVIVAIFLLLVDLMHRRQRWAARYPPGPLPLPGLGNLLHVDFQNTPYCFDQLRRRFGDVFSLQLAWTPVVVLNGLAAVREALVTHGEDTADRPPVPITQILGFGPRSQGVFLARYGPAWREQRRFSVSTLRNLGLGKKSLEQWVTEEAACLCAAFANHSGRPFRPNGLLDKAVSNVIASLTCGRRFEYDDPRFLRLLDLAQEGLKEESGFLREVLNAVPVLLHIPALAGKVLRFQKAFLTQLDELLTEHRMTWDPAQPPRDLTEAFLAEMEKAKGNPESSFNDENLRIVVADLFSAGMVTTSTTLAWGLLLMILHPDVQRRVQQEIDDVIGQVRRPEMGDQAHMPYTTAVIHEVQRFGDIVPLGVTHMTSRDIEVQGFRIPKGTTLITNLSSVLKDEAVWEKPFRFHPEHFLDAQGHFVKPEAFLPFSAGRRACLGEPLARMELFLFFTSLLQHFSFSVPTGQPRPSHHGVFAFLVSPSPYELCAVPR

## Cc1cc2c(s1)Nc1ccccc1N=C2N1CCN(C)CC1 [Olanzapine, olanzapine]
[1]; Caco-2, pH 7.4
  Papp A→B: 17.4 ×10⁻⁶ cm/s
[2]
  microsomal CLint: 57.9 µL/min/mg
CYP1A2
  microsomal CLint: 23.7 µL/min/mg
CYP2C8
  microsomal CLint: 4.98 µL/min/mg
CYP3A4 [3]; human liver microsomes and recombinant enzymes
  microsomal CLint: 4.42 µL/min/mg
UGT1A4
  microsomal CLint: 20.6 µL/min/mg
FMO3
  microsomal CLint: 4.28 µL/min/mg
[4]; ref Callaghan et al.21
  Compound type: Monoprotic base
[4]; ref El‐Ela et al.29
  log P: 2.89
CYP3A4 [5]
  contribution of CYP3A4 to the overall clearance: < 10%
[6]
  administered dose excreted renally as unchanged drug: 7%
[6]; olanzapine, ref Kassahun et al.15
  CLR (renal clearance): 0.81 L/h
[7]; pharmacokinetics study (N = 49)
  AUC lower in smokers than in nonsmokers: 15%
[7]; population pharmacokinetic analysis (N = 523)
  increase in clearance, smokers vs. nonsmokers: 55%

## NC(=O)c1ccc2c(c1O)[C@]13CCN(CC4CC4)[C@H](C2)[C@]1(O)CCC(=O)C3 [Samidorphan, samidorphan]
[8]; pKa1 (acid)
  pKa: 7.5
[8]; pKa2 (base)
  pKa: 8.2
[8]
  Compound type: Ampholyte
[9]; plasma
  fraction unbound: 0.69
[9]; samidorphan, unpublished data provided by Alkermes
  B:P (blood‐to‐plasma partition ratio): 1
[1]; Caco-2, pH 6.5
  Papp A→B: 18.8 ×10⁻⁶ cm/s
[2]
  microsomal CLint: 11.2 µL/min/mg
non-CYP3A4 enzymes
  microsomal CLint: 5.22 µL/min/mg
CYP3A4 [3]
  microsomal CLint: 5.93 µL/min/mg
[10]
  CL renal: 183 mL/min
CYP2D6
  Ki: 41.5 µM
[11]
  fumic at 0.5 mg/mL: 0.86
[7]; [12]
  AUC ratio (geometric mean): 1.50
  Cmax ratio (geometric mean): 1.12
Human μ‐opioid receptor
  binding affinity (in words): high affinity
Human κ‐opioid receptor
  binding affinity (in words): high affinity
Human δ‐opioid receptor
  binding affinity (in words): high affinity
μ‐opioid receptors
  functional activity (in words): antagonist
κ‐opioid receptors
  functional activity (in words): partial agonist
δ‐opioid receptors
  functional activity (in words): partial agonist
Opioid receptor
  in vivo function (in words): opioid receptor antagonist
